Data on one molecule can be found in patent publication US10383960B2, “Small molecule imaging of fungi by positron emission tomography scanning” (The United States of America, as represented by the …, priority 2013, dated 2019).

The structures appear in SMILES notation.

For this data set, the system named is Aspergillus. An excerpt: Compounds such as calcofluor can be used for visualizing a broad range of medically relevant fungi under the microscope, due to their specific nature of binding, high level fluorescence (detectable under the microscope) and low binding to patient tissue. Calcofluor is a fairly non-toxic compound that is used to dye clothes, due to its high affinity for cellulose-containing cotton fibers. It has also been used to follow ground water migration due to its fluorescent properties and low toxicity.

As for `O=S(=O)([O-])c1cc(Nc2nc(Nc3ccccc3)nc(N(CCO)CCO)n2)ccc1C=Cc1ccc(Nc2nc(Nc3ccccc3)nc(N(CCO)CCO)n2)cc1S(=O)(=O)[O-].[Na+].[Na+]` [calcofluor], where the note is “in vivo”, the “recovery of injected compound in lung tissue” value was “could be recovered in harvested lung tissue”. Besides, under “microscope, lung tissue removed from subject infected with Aspergillus”, the “fluorescent staining of fungal hyphae in lung tissue” value is “demonstrated fluorescent fungal hyphal forms under the microscope”.
